The results in this text go back to patent publication US4600788A, “4'-flavonecarboxylic acids and pharmaceutically acceptable derivatives their preparation, and their application” (Societe Cortial, S.A., priority 1983, dated 1986).

Counter-ions that a name gives are not always drawn.

One series relates to mice. The series is described as follows: Toxicity in mice. It counts as in vivo. The following applies: for LD0: orally.
Another series deals with T1, aldose reductase (Bos taurus, UniProt P16116).
T1 construct: The enzyme is extracted from beef crystalline lens; from tissue; host or cells: beef crystalline lens
The series is described as follows: Inhibition of aldose reductase in vitro (reduction of glyceraldehyde to glycerol, spectrophotometric NADPH determination). Particulars: enzyme from beef crystalline lens; substrate glyceraldehyde; read-out: log 1/CI50 (CI50 = concentration in mole/l resulting in 50% inhibition of the enzymatic activity) (converted). It counts as biochemical. The protocol:
The enzyme is extracted from beef crystalline lens by the method described by Hayman S. and Kinoshita J. H. (J. Biol Chem., 1965, 240, 2,877). The percentage of inhibition of the capacity of the enzyme to reduce glyceraldehyde to glycerol under the effect of the product to be tested is determined by the spectrophotometric determination of the amount of NADPH reacting according to the method described by Hayman and Kinoshita. We give below in parentheses after each product the value of the log 1/CI50 where CI50 represents the concentration expressed in mole/l resulting in 50% inhibition of the enzymatic activity: COR 19 85 (4.9); COR 19 91 (5.5); COR 19 93 (5.1); COR 19 94 (5.2); COR 19 99 (5.4); COR 35 01 (6.9); COR 35 02 (5.15); COR 35 07 (6.3); COR 35 09 (5.7); COR 35 11 (5.9); COR 35 19 (5.8); COR 35 22 (5.2).

For series [1], the system named is rats. Put plainly: Diuretic activity, method of Lipschitz et coll. The class given is in vivo. Particulars: oral administration of 20 mg/kg. The protocol:
Besides their advantage in curative and preventive therapy of complications from diabetes, the products, which are the object of this invention, are also useful as diuretics. Thus, product COR35 07, tested in rats according to the method of Lipschitz et coll.(J. Pharm. Exp. Therap., 1943, 79, 97-110), results in an increase in urinary excretion of sodium (natruria was multiplied by 2.6 after oral administration of 20 mg/kg).

In series [2] the test system is rats. The series is described as follows: Galactose cataracts: degree of cataract marked 0 to 3 by ophthalmoscope. It counts as in vivo. The following applies: 20% galactose diet, 100 mg/kg d. The protocol:
Rats, 14 days old, were kept in a cage of 11 with a mother for 3 days. From the 4th to the 9th day, the animals received the product to be tested or the reference product. At the end of pretreatment, the mothers were removed. Two out of the 11 animals were eliminated to obtain batches of homogenous weight. The selected rats were divided 3 by 3 into cages at random, and the diet containing 20% galactose was put in place. […] The degree of cataract was evaluated by a marking system from 0 to 3.
The marks given to the treated animals were compared with those of the control animals by the Mann and Whitney U test (D. Schwartz, "Statistical Methods for the Use of Physicians and Biologists," Ed. Flammarion, Paris, 1963).

The nature of the next series: Toxicity in mice. The class given is in vivo. The following applies: mouse, in vivo.
Series [3] relates to rats. Put plainly: Neuropathy with streptozotocin: sorbitol and inositol levels in sciatic nerves, glycemia. The following applies: 100 mg/kg/d. The class given is in vivo. The protocol: Four batches of 10 rats weighing about 200 g were treated from D-2 to D+3 with a gummy julep of the product to be tested. On D O the animals received an i.p. injection of 100 mg/kg of streptozotocin dissolved in a citrate buffer. The glycemia of the rats was determined 24 hours and 3 days after injection of the streptozotocin and the sciatic nerves were removed to determine the sorbitol and inositol levels. […] COR 35 01 had no effect on the glycemia of the animals.

With `CC(=O)Nc1ccc2c(=O)c(OC(C)=O)c(-c3ccc(C(=O)O)cc3)oc2c1` [COR 19 94, 7-Acetamido-3-acetoxy-4'-flavonecarboxylic acid], the LD0 entry in the series on mice is “more than 2000 mg/kg”. Besides, the IC50 on aldose reductase was 6.31 µM.
With `CC(=O)Nc1ccc2c(=O)cc(-c3ccc(C(=O)O)cc3)oc2c1` [COR 19 85, 7-acetamido-4'-flavonecarboxylic acid], at aldose reductase, the IC50 is 12.6 µM.
The same measure, in the same setting: for `CCCc1c(-c2ccc(C(=O)O)cc2)oc2cc(S(=O)(=O)N(C)CCO)ccc2c1=O` [COR 35 19, 7-(N-hydroxyethyl N-methylsulfamoyl)-3-propyl-4'-flavonecarboxylic acid] the value was 1.58 µM; for `CCCc1c(-c2ccc(C(=O)O)cc2)oc2cc(S(N)(=O)=O)ccc2c1=O` [COR 35 22, 7-sulfamoyl-3-propyl-4'-flavonecarboxylic acid], 6.31 µM; for `CCc1c(-c2ccc(C(=O)O)cc2)oc2cc(NC(C)=O)ccc2c1=O` [COR 19 93, 7-acetamido-3-ethyl-4'-flavonecarboxylic acid], 7.94 µM.
`COC(=O)c1ccc(-c2oc3cc(NS(C)(=O)=O)ccc3c(=O)c2OS(C)(=O)=O)cc1` [COR 35 07, methyl 7-methanesulfonamido-3-methanesulfonyloxy-4'-flavonecarboxylate]: the IC50 at aldose reductase is 0.501 µM. In addition, the “natruria multiplied by (increase in urinary excretion of sodium)” value in the series on rats [1] worked out at 2.6.
Take `CCCc1c(-c2ccc(C(=O)O)cc2)oc2cc(S(=O)(=O)N(C)C)ccc2c1=O` [COR 35 09, N,N-7-dimethylsulfamoyl-3-propyl-4'-flavonecarboxylic acid]: in the series on rats [2] (D+1, marks 0 to 3), the “galactose cataract average index D + 1” value was determined as 0.0. Moreover, the “galactose cataract average index D + 2” value with rats [2] (D+2, marks 0 to 3) is on record as 0.0. Moreover, the “galactose cataract average index D + 3” value in the series with rats [2] (D+3, marks 0 to 3) is listed as 0.031. In the series on rats [2] (D+4, marks 0 to 3, S), the “galactose cataract average index D + 4” value amounted to 0.47. Moreover, the “galactose cataract average index D + 5” value with rats [2] (D+5, marks 0 to 3, S) was 0.97. Further, the “galactose cataract average index D + 6” value with rats [2] (D+6, marks 0 to 3, S) was 1.44. Also, the “galactose cataract average index D + 7” value in the series with rats [2] (D+7, marks 0 to 3, S) is listed as 1.69. For the same compound, the “galactose cataract average index D + 8” value with rats [2] (D+8, marks 0 to 3, S) was 1.81. Moreover, the “galactose cataract average index D + 9” value with rats [2] (D+9, marks 0 to 3, S) is listed as 2.06. Moreover, the “galactose cataract average index D + 10” value in the series with rats [2] (D+10, marks 0 to 3, S) was found to be 1.88. In addition, the “galactose cataract average index D + 11” value in the series on rats [2] (D+11, marks 0 to 3, S) worked out at 1.69. In addition, the “galactose cataract average index D + 12” value in the series with rats [2] (D+12, marks 0 to 3, S) is listed as 1.81. Moreover, the “galactose cataract average index D + 13” value in the series with rats [2] (D+13, marks 0 to 3, S) came to 1.50. Moreover, the IC50 at aldose reductase was 2 µM.
Turning to `CCCc1c(-c2ccc(C(=O)O)cc2)oc2cc(NC(=O)CN3CCOCC3)ccc2c1=O` [COR 35 02, 7-morpholinoacetamido-3-propyl-4'-flavonecarboxylic acid hydrochloride], the IC50 at aldose reductase is 7.08 µM.
On the same count and under the same terms, for `CCCc1c(-c2ccc(C(=O)O)cc2)oc2cc(S(=O)(=O)NC)ccc2c1=O` [COR 35 11, N-7-methylsulfamoyl-3-propyl-4'-flavonecarboxylic acid] the value was 1.26 µM.
For the compound `CCCc1c(-c2ccc(C(=O)O)cc2)oc2cc(NC(C)=O)ccc2c1=O` [COR 19 91, 7-acetamido-3-propyl-4'-flavonecarboxylic acid], in the series with mice, the LD0 result is “more than 2000 mg/kg”. Moreover, the IC50 at aldose reductase was 3.16 µM.
In the case of `CCCc1c(-c2ccc(C(=O)OC)cc2)oc2cc(NS(C)(=O)=O)ccc2c1=O` [COR 19 99, methyl 7-methanesulfonamido-3-propyl-4'-flavonecarboxylate], on aldose reductase, the IC50 is 3.98 µM.
Regarding `CCCc1c(-c2ccc(C(=O)O)cc2)oc2cc(NS(C)(=O)=O)ccc2c1=O` [COR 35 01, 7-methanesulfonamido-3-propyl-4'-flavonecarboxylic acid], the mortality in the series “Toxicity in mice” (ip, intraperitoneally, 500 mg/kg) is 20%; in the series with mice (intraperitoneally, 250 mg/kg), “did not cause any mortality”. Besides, the LD0 entry in the series on mice is on record as “more than 2000 mg/kg”. For the same compound, the IC50 at aldose reductase was 0.126 µM. Further, the “sorbitol level in the sciatic nerves” value in the series with rats [3] (D-2 to D+3, control 0.983±0.334) came out at 0.426 ± 0.171 mg/kg. In addition, the “inositol level in the sciatic nerves” value in the series on rats [3] (D-2 to D+3, control 1.6555±0.372) came out at 1.184 ± 0.340 mg/kg.
Regarding `CCCc1c(-c2ccc(C(=O)OC)cc2)oc2cc(NC(=O)CN3CCOCC3)ccc2c1=O` [COR35 17, methyl 7-(morpholinoacetamido)-3-propyl-4'-flavonecarboxylate], the mortality in the series “Toxicity in mice” (oral administration of 1000 mg/kg) was 10%.

What is called mortality is the percentage killed. A higher mortality goes with fewer survivors.
